Assay results published in patent publication US8729081B2, “Compositions and methods for treating alcohol use disorders, pain and other diseases” (VM Discovery Inc., priority 2008, dated 2014).

Assays:
PKCε (h) = target: T1, PKCε (h) (Homo sapiens, UniProt Q02156); experiment: In vitro PKCε kinase assay (radiometric, [γ-33P-ATP], HotSpot); format: biochemical; settings: recombinant human PKCε, 10 μM ATP; read-out: IC50 in antagonizing the PKCε
T1 construct: host or cells: insect cells
T1 sequence (Q02156 1-737): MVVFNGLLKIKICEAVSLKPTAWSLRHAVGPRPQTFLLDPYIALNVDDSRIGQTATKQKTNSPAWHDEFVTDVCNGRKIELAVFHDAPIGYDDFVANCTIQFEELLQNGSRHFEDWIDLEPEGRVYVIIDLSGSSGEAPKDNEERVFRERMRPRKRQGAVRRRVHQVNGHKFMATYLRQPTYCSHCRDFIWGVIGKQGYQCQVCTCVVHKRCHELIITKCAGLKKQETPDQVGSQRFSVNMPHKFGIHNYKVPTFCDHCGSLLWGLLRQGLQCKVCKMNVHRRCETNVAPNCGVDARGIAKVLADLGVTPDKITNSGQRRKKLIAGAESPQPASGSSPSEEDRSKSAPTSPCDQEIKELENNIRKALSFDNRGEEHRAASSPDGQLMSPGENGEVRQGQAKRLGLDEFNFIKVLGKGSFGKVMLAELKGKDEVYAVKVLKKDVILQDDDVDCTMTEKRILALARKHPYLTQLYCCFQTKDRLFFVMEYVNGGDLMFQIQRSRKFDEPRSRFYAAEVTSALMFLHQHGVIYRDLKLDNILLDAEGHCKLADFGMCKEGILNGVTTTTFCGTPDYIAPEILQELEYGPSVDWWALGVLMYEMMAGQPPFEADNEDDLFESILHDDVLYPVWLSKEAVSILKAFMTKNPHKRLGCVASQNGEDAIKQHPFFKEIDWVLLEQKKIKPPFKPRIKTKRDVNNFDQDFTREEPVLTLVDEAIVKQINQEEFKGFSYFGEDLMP
Experimental: There are many in vitro commercially available and validated bioassays (Ma, H., et al, Expert Opin Drug Discov. 2008 June; 3(6): 607-621 and references therein) which can be used to characterize the activities of compounds of the present invention against PKCε protein kinase. Compounds can be tested against the activity of recombinant PKCε. In a final reaction volume of 25 μL, PKCε (h) (0.4 nM, Human recombinant protein expressed in insect cells. Mw=83.7 kDa) is incubated with kinase buffer (20 mM HEPES-HCl, pH 7.5, 10 mM MgCl2, 1 mM EGTA, 0.02% Brij35, 0.1 mM Na3VO4, 0.02 mg/ml BSA, 2 mM DTT, and 1% DMSO), 0.1 mg/mL phosphatidylserine, 10 μg/mL diacylglycerol, 20 μM S25-PKC peptide substrate (RFARKGSLRQKNV-OH, Mw=1561 Da), 10 mM MgAcetate and 10 μM [γ-33P-ATP] (specific activity approx. 500 cpm/pmol). The reaction is initiated by the addition of the MgATP mix. After incubation for 40 minutes at room temperature, the reaction is stopped by the addition of 5 μL of a 3% phosphoric acid solution. 10 μL of the reaction is then spotted onto a P30 filtermat and washed three times for 5 minutes in 75 mM phosphoric acid and once in methanol prior to drying and scintillation counting Control samples are incubated without inhibitor to measure maximal activity or with the general kinase inhibitor Staurosporine (5 μM) to measure complete inhibition. For each compound the % inhibition can be calculated by the formula, or by curve fits: % Inhibition=(Max activity−Activity with compound)/(Max activity−Activity with Control)*100. Compounds with inhibitory activity are assayed using at least 5 concentrations (1 nM-300 μM). Concentrations are adjusted to generate a complete dose-response curve. Each sample is assayed in duplicate and each experiment is repeated three times. Results are fitted by non-linear regression analysis to a sigmoidal dose-response curve with variable slope to calculate Hill slope, log IC50 and Imax values for each inhibitor, using the program Prism 5 (GraphPad Software, Inc., San Diego, Calif.).
Kinase profiling was performed using HotSpot technology (Reaction Biology Corp. 11 Malvern, Pa., USA). This technology is a radioisotope-based P81 filter-binding assay. Compound of the present invention were dissolved in pure DMSO to make a 10 mM stock, then diluted in pure DMSO to make a serial dilution based on the IC50 ranges. PKCε (h) (0.4 nM, human recombinant protein expressed in insect cells. Mw=83.7 kDa) and substrate (20 μM peptide substrate, [RFARKGSLRQKNV]) were diluted in the reaction buffer (20 mM HEPES-HCl, pH 7.5, 10 mM MgCl2, 1 mM EGTA, 0.02% Brij35, 0.1 mM Na3VO4, 0.02 mg/ml BSA, 2 mM DTT, and 1% DMSO), and then 5 nL of compound was delivered into PKCε (h) and substrate mixture by acoustic technology using Echo 550 (LabCyte Inc., Sunnyvale, Calif.). The reaction was initiated by the addition of [γ-33P-ATP] into the reaction mixture (final concentration was 10 μM) and stopped after at least 40 min incubation at room temperature. The unreacted free 33P-ATP was washed away before detection.
The intrinsic PKCε antagonist activity of a compound which may be used in the present invention may be determined by these assays. […] Such a result is indicative of the intrinsic activity of the compounds in use as antagonists of PKCε.

PKCε = target: T2, PKCε (Homo sapiens, UniProt Q02156); experiment: Kinetic analysis of PKCε inhibition (initial velocity vs ATP, Lineweaver-Burk); format: biochemical
T2 construct: host or cells: insect cells
Experimental: FIG. 1. […] (A) Initial velocity (Vi) plotted against ATP concentration at various concentrations of the compound plus vehicle control.
The above in vitro assay can also be used to measure the initial velocity of the kinase reaction, varying the concentrations of ATP (1-60 μM) or S25 peptide substrate (1-500 nM). Values for km and Vmax are calculated for drug- and vehicle-treated samples by linear regression analysis of double reciprocal Lineweaver Burke plots (see Examples).

Structure (SMILES): O=C(NCCCN1CCCC1)c1ccc(/C=C2\Sc3ccccc3N(Cc3ccccc3F)C2=O)cc1 [Compound 481, 4-{(Z/E)-[4-(2-fluorobenzyl)-3-oxo-3,4-dihydro-2H-1,4-benzothiazin-2-ylidene]methyl}-N-[3-(pyrrolidin-1-yl)propyl]benzamide]
- IC50 (PKCε (h)): 10 to 1000 nM
- mode of PKCε inhibition with respect to ATP (PKCε; FIG. 1, kinetic analysis): non-competitively with ATP
- Vmax and km in Lineweaver-Burk double reciprocal plot (PKCε; FIG. 1B, various compound concentrations plus vehicle control (4 conditions)): differences in Vmax but not in km
